Target: JNK1/TMR-JIPtide (Homo sapiens, UniProt P45983)
Format: binding
Settings: relative to apo-JNK1

Sequence of JNK1/TMR-JIPtide (P45983 1-384 isoform P45983-2, species assumed): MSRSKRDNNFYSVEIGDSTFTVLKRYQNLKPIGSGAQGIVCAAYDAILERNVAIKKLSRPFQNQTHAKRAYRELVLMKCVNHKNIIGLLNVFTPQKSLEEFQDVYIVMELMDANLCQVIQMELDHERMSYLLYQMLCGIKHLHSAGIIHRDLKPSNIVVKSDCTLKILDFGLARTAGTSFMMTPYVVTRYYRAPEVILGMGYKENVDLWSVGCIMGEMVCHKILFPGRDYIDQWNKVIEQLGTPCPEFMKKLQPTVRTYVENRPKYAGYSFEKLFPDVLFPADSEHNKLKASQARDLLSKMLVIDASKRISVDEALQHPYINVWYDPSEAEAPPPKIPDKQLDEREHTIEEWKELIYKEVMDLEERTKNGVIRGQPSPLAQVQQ

effect of ATP-binding site ligand on JNK1 affinity for JIPtide (in words): two-fold more tightly
Structure (SMILES): Nc1ncnc2c1ncn2[C@@H]1O[C@H](COP(=O)(O)OP(=O)(O)OP(=O)(O)O)[C@@H](O)[C@H]1O [ATP, adenosine triphosphate]
